How the values were obtained:
[1] = biological target: Epidermal growth factor receptor (Homo sapiens, UniProt P00533); test: Inhibition of recombinant wildtype N-terminal GST-tagged human EGFR kinase domain (696 to end residues) extracted from baculovirus infect Sf21 insect cells incubated for 1 hrs by spectrophotometric analysis
[2] = biological target: Epidermal growth factor receptor (Homo sapiens, UniProt P00533, L858R/T790M); test: Inhibition of recombinant N-terminal GST-tagged human EGFR T790M/L858R mutant (696 to end residues) extracted from baculovirus infect Sf21 insect cells incubated for 1 hrs by spectrophotometric analysis
[3] = biological target: Epidermal growth factor receptor (Homo sapiens, UniProt P00533, C797S/EX19DEL/T790M); test: Inhibition of recombinant N-terminal GST-tagged human EGFR 19del/T790M/C797S mutant (668 to end residues) extracted from Sf9 insect cells incubated for 1 hrs by spectrophotometric analysis; format: cell-free
[4] = Antiproliferative activity against mouse BaF3 cells assessed as inhibition of cell proliferation incubated for 72 hrs by CCK-8 assay; format: toxicity, cell-based
BaF3 [5] = test: cells; settings: Mus musculus, BaF3, 72 h
BaF3 [6] = test: cells; settings: Mus musculus, BaF3, 72 h; remark: listed apart in the source
cells = settings: Homo sapiens, PC9-OR, 72 h
A-431 = test: cells; settings: Homo sapiens, A-431, 72 h
Description: Antiproliferative activity against human A-431 cells harboring wildtype EGFR assessed as inhibition of cell proliferation measured after 72 hrs by SRB assay

[7] = Induction of apoptosis in mouse BaF3 cells harboring EGFR 19del/T790M/C797S mutant assessed as early apoptotic cells at 30 nM incubated for 48 hrs by Annexin V-FITC/PI staining based flow cytometric analysis (reference value: 2.48 %); format: functional
[8] = Induction of apoptosis in mouse BaF3 cells harboring EGFR 19del/T790M/C797S mutant assessed as late apoptotic cells at 30 nM incubated for 48 hrs by Annexin V-FITC/PI staining based flow cytometric analysis (reference value: 1.75 %); format: functional
[9] = Induction of apoptosis in mouse BaF3 cells harboring EGFR 19del/T790M/C797S mutant assessed as early apoptotic cells at 300 nM incubated for 48 hrs by Annexin V-FITC/PI staining based flow cytometric analysis (reference value: 2.48 %); format: functional
[10] = Induction of apoptosis in mouse BaF3 cells harboring EGFR 19del/T790M/C797S mutant assessed as early apoptotic cells at 100 nM incubated for 48 hrs by Annexin V-FITC/PI staining based flow cytometric analysis (reference value: 2.48 %); format: functional
[11] = Induction of apoptosis in mouse BaF3 cells harboring EGFR 19del/T790M/C797S mutant assessed as late apoptotic cells at 100 nM incubated for 48 hrs by Annexin V-FITC/PI staining based flow cytometric analysis (reference value: 1.75 %); format: functional
[12] = Induction of apoptosis in mouse BaF3 cells harboring EGFR 19del/T790M/C797S mutant assessed as late apoptotic cells at 300 nM incubated for 48 hrs by Annexin V-FITC/PI staining based flow cytometric analysis (reference value: 1.75 %); format: functional
[13] = Induction of apoptosis in mouse BaF3 cells harboring EGFR 19del/T790M/C797S mutant assessed as early apoptotic cells at 1000 nM incubated for 48 hrs by Annexin V-FITC/PI staining based flow cytometric analysis (reference value: 2.48 %); format: functional
[14] = Induction of apoptosis in mouse BaF3 cells harboring EGFR 19del/T790M/C797S mutant assessed as late apoptotic cells at 1000 nM incubated for 48 hrs by Annexin V-FITC/PI staining based flow cytometric analysis (reference value: 1.75 %); format: functional
[15] = biological target: Epidermal growth factor receptor (Homo sapiens, UniProt P00533, C797S/L858R/T790M); test: Inhibition of recombinant C-terminal His-tagged/N-terminal GST-tagged human EGFR T790M/C797S/L858R mutant (668 to 1210 residues) extracted from baculovirus infected Sf9 insect cells incubated for 1 hrs by spectrophotometric analysis
[16] = Induction of apoptosis in mouse BaF3 cells harboring EGFR 19del/T790M/C797S mutant assessed as early apoptotic cells at 30 nM incubated for 48 hrs by Annexin V-FITC/PI staining based flow cytometric analysis (reference value: 0.36 %); format: functional
[17] = Induction of apoptosis in mouse BaF3 cells harboring EGFR 19del/T790M/C797S mutant assessed as late apoptotic cells at 30 nM incubated for 48 hrs by Annexin V-FITC/PI staining based flow cytometric analysis (reference value: 1.47 %); format: functional
[18] = Induction of apoptosis in mouse BaF3 cells harboring EGFR 19del/T790M/C797S mutant assessed as early apoptotic cells at 100 nM incubated for 48 hrs by Annexin V-FITC/PI staining based flow cytometric analysis (reference value: 0.36 %); format: functional
[19] = Induction of apoptosis in mouse BaF3 cells harboring EGFR 19del/T790M/C797S mutant assessed as late apoptotic cells at 100 nM incubated for 48 hrs by Annexin V-FITC/PI staining based flow cytometric analysis (reference value: 1.47 %); format: functional
[20] = Induction of apoptosis in mouse BaF3 cells harboring EGFR 19del/T790M/C797S mutant assessed as early apoptotic cells at 300 nM incubated for 48 hrs by Annexin V-FITC/PI staining based flow cytometric analysis (reference value: 0.36 %); format: functional
[21] = Induction of apoptosis in mouse BaF3 cells harboring EGFR 19del/T790M/C797S mutant assessed as late apoptotic cells at 300 nM incubated for 48 hrs by Annexin V-FITC/PI staining based flow cytometric analysis (reference value: 1.47 %); format: functional
[22] = Induction of apoptosis in mouse BaF3 cells harboring EGFR 19del/T790M/C797S mutant assessed as early apoptotic cells at 1000 nM incubated for 48 hrs by Annexin V-FITC/PI staining based flow cytometric analysis (reference value: 0.36 %); format: functional
[23] = Induction of apoptosis in mouse BaF3 cells harboring EGFR 19del/T790M/C797S mutant assessed as late apoptotic cells at 1000 nM incubated for 48 hrs by Annexin V-FITC/PI staining based flow cytometric analysis (reference value: 1.47 %); format: functional
BaF3 [24] = test: Antitumor activity against mouse BaF3 cells harboring 19del/T790M/C797S mutant implanted in female BALB/c nu/nu mouse assessed as tumor growth inhibition at 20 mg/kg, po administered once daily for 9 days relative to control; format: functional; settings: BaF3, 216 h, time 9 day, read-out: TGI

Epidermal growth factor receptor (Homo sapiens, UniProt P00533, C797S/EX19DEL/T790M), sequence (P00533 whole entry, looked up, stated change not applied): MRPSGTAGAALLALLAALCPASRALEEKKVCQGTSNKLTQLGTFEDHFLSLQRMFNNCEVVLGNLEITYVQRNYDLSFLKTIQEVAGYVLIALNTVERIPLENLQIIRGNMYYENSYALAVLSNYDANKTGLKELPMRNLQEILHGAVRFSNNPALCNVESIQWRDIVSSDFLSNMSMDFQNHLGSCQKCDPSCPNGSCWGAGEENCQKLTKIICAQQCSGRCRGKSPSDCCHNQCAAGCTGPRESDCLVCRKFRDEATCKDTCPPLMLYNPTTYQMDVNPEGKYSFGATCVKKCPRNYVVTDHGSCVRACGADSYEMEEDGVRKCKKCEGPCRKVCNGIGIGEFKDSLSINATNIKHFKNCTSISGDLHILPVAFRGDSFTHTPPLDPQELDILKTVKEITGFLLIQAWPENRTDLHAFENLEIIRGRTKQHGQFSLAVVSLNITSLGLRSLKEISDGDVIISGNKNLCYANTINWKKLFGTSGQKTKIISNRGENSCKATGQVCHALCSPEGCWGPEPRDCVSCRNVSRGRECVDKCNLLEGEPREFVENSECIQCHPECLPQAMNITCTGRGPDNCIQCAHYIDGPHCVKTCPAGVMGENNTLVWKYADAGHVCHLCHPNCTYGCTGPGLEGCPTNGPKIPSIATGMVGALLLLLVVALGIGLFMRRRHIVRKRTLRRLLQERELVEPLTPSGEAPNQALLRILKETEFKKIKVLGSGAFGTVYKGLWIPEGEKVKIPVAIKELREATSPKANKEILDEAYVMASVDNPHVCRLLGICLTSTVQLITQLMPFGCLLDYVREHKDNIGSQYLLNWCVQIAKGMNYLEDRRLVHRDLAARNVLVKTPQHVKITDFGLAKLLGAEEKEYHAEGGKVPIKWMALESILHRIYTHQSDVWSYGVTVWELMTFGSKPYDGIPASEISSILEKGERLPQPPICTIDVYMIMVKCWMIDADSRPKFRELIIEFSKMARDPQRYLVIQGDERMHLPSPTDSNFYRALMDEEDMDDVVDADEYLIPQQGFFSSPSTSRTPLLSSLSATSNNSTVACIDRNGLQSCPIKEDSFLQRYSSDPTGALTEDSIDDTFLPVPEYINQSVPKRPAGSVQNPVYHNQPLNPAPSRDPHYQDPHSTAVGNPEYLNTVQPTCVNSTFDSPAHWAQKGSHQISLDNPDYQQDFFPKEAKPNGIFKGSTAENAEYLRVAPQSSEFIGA
Epidermal growth factor receptor (Homo sapiens, UniProt P00533), sequence (P00533 whole entry, the tested form may be a part): as the sequence (P00533 whole entry, looked up, stated change not applied) above
Epidermal growth factor receptor (Homo sapiens, UniProt P00533, L858R/T790M), sequence (P00533 25-1210 T790M/L858R limits assumed): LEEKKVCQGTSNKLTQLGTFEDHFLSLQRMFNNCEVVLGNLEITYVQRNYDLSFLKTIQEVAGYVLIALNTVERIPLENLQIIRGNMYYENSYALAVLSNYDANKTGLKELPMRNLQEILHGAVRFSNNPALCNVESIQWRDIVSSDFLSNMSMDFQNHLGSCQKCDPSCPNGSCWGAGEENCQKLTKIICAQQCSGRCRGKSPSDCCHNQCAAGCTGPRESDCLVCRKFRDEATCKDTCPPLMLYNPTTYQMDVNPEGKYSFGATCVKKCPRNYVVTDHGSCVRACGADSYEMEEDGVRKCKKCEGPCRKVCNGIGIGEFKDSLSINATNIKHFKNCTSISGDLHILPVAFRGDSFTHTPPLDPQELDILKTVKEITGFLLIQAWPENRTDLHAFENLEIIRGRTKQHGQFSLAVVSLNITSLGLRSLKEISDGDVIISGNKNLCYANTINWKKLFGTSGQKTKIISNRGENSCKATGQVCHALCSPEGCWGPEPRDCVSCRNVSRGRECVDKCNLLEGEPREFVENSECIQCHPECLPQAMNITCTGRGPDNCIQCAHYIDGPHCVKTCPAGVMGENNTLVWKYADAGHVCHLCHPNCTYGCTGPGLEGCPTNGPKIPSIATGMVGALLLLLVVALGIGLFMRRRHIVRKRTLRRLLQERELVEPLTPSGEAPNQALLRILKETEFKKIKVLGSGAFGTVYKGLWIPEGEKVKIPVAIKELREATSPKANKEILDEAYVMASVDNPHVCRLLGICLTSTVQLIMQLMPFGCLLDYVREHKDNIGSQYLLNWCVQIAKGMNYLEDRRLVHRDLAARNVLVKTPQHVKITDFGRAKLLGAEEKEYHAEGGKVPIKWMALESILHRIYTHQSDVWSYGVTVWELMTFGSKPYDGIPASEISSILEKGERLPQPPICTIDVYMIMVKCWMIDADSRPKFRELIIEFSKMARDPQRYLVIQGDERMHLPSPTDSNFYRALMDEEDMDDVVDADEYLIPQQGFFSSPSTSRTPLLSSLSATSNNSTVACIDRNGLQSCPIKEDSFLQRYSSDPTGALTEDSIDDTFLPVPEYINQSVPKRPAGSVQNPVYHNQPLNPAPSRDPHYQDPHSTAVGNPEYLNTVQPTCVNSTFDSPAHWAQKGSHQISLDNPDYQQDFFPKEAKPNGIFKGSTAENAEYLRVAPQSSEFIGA
Epidermal growth factor receptor (Homo sapiens, UniProt P00533, C797S/L858R/T790M), sequence (P00533 25-1210 T790M/C797S/L858R limits assumed): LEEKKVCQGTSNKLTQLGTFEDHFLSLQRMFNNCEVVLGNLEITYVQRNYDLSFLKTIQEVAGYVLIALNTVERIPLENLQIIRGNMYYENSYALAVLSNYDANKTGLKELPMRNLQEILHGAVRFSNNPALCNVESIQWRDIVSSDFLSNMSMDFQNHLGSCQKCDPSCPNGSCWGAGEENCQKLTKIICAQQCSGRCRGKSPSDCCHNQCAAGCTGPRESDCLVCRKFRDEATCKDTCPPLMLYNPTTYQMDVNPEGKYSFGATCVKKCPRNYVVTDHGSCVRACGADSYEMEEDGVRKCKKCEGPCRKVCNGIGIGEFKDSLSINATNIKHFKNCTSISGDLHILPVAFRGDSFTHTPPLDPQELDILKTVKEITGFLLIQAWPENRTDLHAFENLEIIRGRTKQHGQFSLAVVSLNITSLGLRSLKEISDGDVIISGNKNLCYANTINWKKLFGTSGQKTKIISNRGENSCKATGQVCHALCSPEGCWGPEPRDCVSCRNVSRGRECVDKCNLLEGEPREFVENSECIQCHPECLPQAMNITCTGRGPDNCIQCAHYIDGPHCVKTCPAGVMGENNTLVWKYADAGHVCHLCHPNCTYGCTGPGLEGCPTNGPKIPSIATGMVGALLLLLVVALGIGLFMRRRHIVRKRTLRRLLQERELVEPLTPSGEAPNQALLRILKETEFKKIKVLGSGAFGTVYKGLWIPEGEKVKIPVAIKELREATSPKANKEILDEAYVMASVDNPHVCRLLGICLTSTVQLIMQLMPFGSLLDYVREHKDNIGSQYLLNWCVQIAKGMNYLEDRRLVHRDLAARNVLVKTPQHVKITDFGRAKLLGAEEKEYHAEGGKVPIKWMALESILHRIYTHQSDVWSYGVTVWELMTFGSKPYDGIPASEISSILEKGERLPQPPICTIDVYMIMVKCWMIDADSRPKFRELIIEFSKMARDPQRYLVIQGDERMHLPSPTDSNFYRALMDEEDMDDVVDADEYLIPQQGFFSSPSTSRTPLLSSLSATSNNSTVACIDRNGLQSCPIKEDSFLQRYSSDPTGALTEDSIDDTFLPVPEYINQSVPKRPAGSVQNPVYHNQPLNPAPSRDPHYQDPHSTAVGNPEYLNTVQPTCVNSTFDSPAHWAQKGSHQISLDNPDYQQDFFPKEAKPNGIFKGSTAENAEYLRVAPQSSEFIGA

For COc1cc(N(C)CCN(C)C)c2cc1Nc1nccc(n1)-c1cn(c3cc(P(C)(C)=O)ccc13)CCCCC(=O)N2, the IC50 [1] was over 1000 nM, the IC50 [2] was over 1000 nM and the IC50 [3] was over 1000 nM.

COc1cc(N(C)CCN(C)C)c2cc1Nc1ncc(C)c(n1)Nc1ccc(cc1P(C)(C)=O)OCCCn1cc-2cn1 gave an IC50 at 72 h [4] of over 10000 nM, an IC50 (BaF3 [5]) of 174 nM and an IC50 (BaF3 [6]) of 394 nM. It also gave an IC50 (cells) of 104 nM and an IC50 (A-431) of over 10000 nM.

COc1cc(N(C)CCN(C)C)c2cc1Nc1nccc(n1)-c1cnn(c1)CCCCC(=O)N2 showed an IC50 [1] of over 1000 nM, an IC50 [2] of over 1000 nM and an IC50 [3] of over 1000 nM.

In the case of C=CC(=O)Nc1cc(Nc2nccc(-c3cn(C)c4ccccc34)n2)c(OC)cc1N(C)CCN(C)C [OSIMERTINIB], the IC50 (BaF3 [5]) is reported as 1550 nM, the IC50 (BaF3 [6]) is reported as 1760 nM and the IC50 (cells) is reported as 2600 nM. It also gave an IC50 (A-431) of […].

COc1cc(N(C)CCN(C)C)c2cc1Nc1nccc(n1)-c1cc(C#N)n(c1)CCCCC(=O)N2 gave an IC50 [1] of over 1000 nM, an IC50 [2] of over 1000 nM and an IC50 [3] of over 1000 nM.

For COc1cc(N2CCC(N3CCN(C)CC3)CC2)c2cc1Nc1ncc(C)c(n1)Nc1ccc(cc1P(C)(C)=O)OCCCn1cc-2cn1, the IC50 at 72 h [4] was 2770 nM, the IC50 (BaF3 [5]) was 41 nM and the IC50 (BaF3 [6]) was 313 nM. It also gave an IC50 (cells) of 38 nM and an IC50 (A-431) of 158 nM.

For COc1cc(N(C)CCN(C)C)c2cc1Nc1ncc(C)c(n1)Nc1ccc(cc1P(C)(C)=O)OCCCCCC2, the IC50 at 72 h [4] was over 10000 nM, the IC50 (BaF3 [5]) was 1730 nM and the IC50 (BaF3 [6]) was 2090 nM. For the same compound, the IC50 (cells) was 1000 nM and the IC50 (A-431) was over 10000 nM.

Work on COc1cc(N2CCC(N3CCN(C)CC3)CC2)ccc1Nc1ncc(Cl)c(Nc2ccccc2P(C)(C)=O)n1 [BRIGATINIB] yielded an IC50 at 72 h [4] of 2380 nM, an Activity [7] of 2.4% and an Activity [8] of 1.21%. For the same compound, the Activity [9] was 4.25%, the Activity [10] was 3.51% and the Activity [11] was 1.3%. The Activity [12] was 1.86%, the Activity [13] was 32.44% and the Activity [14] was 6.87%. It also gave an IC50 (BaF3 [5]) of 382 nM, an IC50 (BaF3 [6]) of 392 nM and an IC50 (cells) of 314 nM. It also gave an IC50 (A-431) of 436 nM.

Work on COc1cc(N(C)CCN(C)C)c2cc1Nc1ncc(C(=O)OC(C)C)c(n1)Nc1ccc(cc1P(C)(C)=O)OCCCCC(=O)N2 yielded an IC50 [1] of over 1000 nM, an IC50 [2] of over 1000 nM and an IC50 [3] of over 1000 nM. It also gave an IC50 [15] of over 1000 nM.

For COc1cc(N(C)CCN(C)C)c2cc1Nc1ncc(C)c(n1)Nc1ccc(cc1P(C)(C)=O)OCCCCC(=O)N2, the IC50 at 72 h [4] was over 10000 nM, the IC50 (BaF3 [5]) was over 10000 nM and the IC50 (BaF3 [6]) was over 10000 nM. For the same compound, the IC50 (cells) was 2330 nM and the IC50 (A-431) was 4370 nM.

With COc1cc(N2CCN(C)CC2)c2cc1Nc1ncc(C)c(n1)Nc1ccc(cc1P(C)(C)=O)OCCCn1cc-2cn1 the IC50 at 72 h [4] was 2250 nM, the IC50 (BaF3 [5]) was under 16 nM and the IC50 (BaF3 [6]) was 146 nM. For the same compound, the IC50 (cells) was 62 nM and the IC50 (A-431) was 161 nM.

With COc1cc(N2CCC(N3CCN(C)CC3)CC2)c(C)cc1Nc1ncc(Br)c(Nc2ccc3nccnc3c2P(C)(C)=O)n1 the IC50 at 72 h [4] was 2040 nM, the Activity [16] was 2.39% and the Activity [17] was 1.98%. For the same compound, the Activity [18] was 6.67%, the Activity [19] was 3.84% and the Activity [20] was 50.63%. It also gave an Activity [21] of 18.4%, an Activity [22] of 64.67% and an Activity [23] of 22.63%. For the same compound, the inhibition in vivo at 20 mg/kg (BaF3 [24]) was 78.4%, the IC50 (BaF3 [5]) was 100 nM and the IC50 (BaF3 [6]) was 176 nM. The IC50 (cells) was 94 nM and the IC50 (A-431) was 302 nM.

From ChEMBL document CHEMBL6127132, “Design, Synthesis, and Biological Evaluation of Novel Diaminopyrimidine Macrocycles as Fourth Generation Reversible EGFR Inhibitors That Overcome Clinical Resistance to Osimertinib Mediated by C797S Mutation” (J Med Chem, 2024)
